Data reported in PMC9972471, “Calamene-Type Sesqui-, Mero-, and Bis-sesquiterpenoids from Cultures of Heimiomyces sp., a Basidiomycete Collected in Africa” (Journal of Natural Products, 2023).
Converted amounts (≈) assume the structure as drawn. Where two headings read alike, the source gives them in different places. Blank lines part the entries; values can stand above or below the compound they belong to.

How the values were obtained:
Type in all cases: cell-based
Mucor hiemalis DSM 2656 = assay: Serial dilution assay, MIC
Method: (§1) Figure S3. ECD spectra of 7 .
(§2) Eval uation of anti mi cr obi al acti vity.
(§3) To assess the antimicrobial activity of each compound, a serial dilution assay to ascertain their minimum inhibitory concentration (MIC) against sever al yeast, fungal and bacterial strains was c arried out in 96-well micr otiter plates, as previously described by Har ms et al.
(§4) Table S1. Minimum inhibitory concentration (MIC in µg/mL) for yeast, bacterial and fungal strains.
(§5) The serial dilution assay was performed using 1 mg/mL stock solutions of 1 -8, 13, 15 and 16. As positive control the antimicrobials [ O] Oxytetracyclin , [ G] Gentamycin and [ K] Kanamycin wer e used for bacteria and [N] Nystatin was used for filamentous fungi and yeast.
(§6) (DSM 70572), Pichia anomala (DSM 6766), Candida albicans (DSM 1665), Escherichia coli (DSM 1116), Mycobacterium smegmatis (ATCC 700084), Pseudomonas aeruginosa (DSM PA14), Chromobacterium violaceum (DSM 30191) and Acinetobacter baumannii (DSM 30008).
(§7) (1 picture or pasted object on this page, not shown here)

[1] = system: Rhodotorula glutinis DSM 10134; assay: Serial dilution assay, MIC; conditions: for MIC: DSM10134, - = no inhibition was observed, read-out: Minimum inhibitory concentration (MIC)
Method: as §1, §2, §3, §4, §5, §6, §7

Bacillus subtilis DSM 10 = assay: Serial dilution assay, MIC; conditions: for MIC: DSM10, - = no inhibition was observed, read-out: Minimum inhibitory concentration (MIC)
Method: as §1, §2, §3, §4, §5, §6, §7

[2] = system: Staphylococcus aureus DSM 346; assay: Serial dilution assay, MIC; conditions: for MIC: Staphylococcus aureus, DSM346, read-out: Minimum inhibitory concentration (MIC)
Method: as §1, §2, §3, §4, §5, §6, §7

[3] = system: cervix carcinoma cell line KB3.1; assay: In vitro cytotoxicity assay; conditions: Homo sapiens, KB 3-1, - = no activity, read-out: Half inhibitory concentration (IC50)
Method: (§8) Eval uation of cytot ox icity.
(§9) Assessment of in vitro cytotoxicity was performed in 96-well plates, as previously published by Harms et al against the
(§10) mouse fibroblast cell line L929 and the cervix car cinoma cell line KB3.1. […]
(§11) Table S2. Half inhibitory concentration (IC50 i n µM ) .
(§12) The cytotoxicity assay was performed using 1 mg/mL stock solutions of 1 -8 , 13 , 15 and 16. Epo thilon B was tested as positive

[4] = system: mouse fibroblast cell line L929; assay: In vitro cytotoxicity assay; conditions: - = no activity, read-out: Half inhibitory concentration (IC50)
Method: as §8, §9, §10, §11, §12

[5] = system: human prostate carcinoma cell line PC-3; assay: Extended cytotoxicity assay; conditions: read-out: Half inhibitory concentration (IC50)
Method: as §8
(§13) Assessment of in vitro cytotoxicity was performed in 96-well plates, as previously published by Harms et al against the mouse fibroblast cell line L929 and the cervix car cinoma cell line KB3.1. Heimiomycin D (5 ) was additionally tested against human breast carcinoma cell line MCF-7, human lung carcinoma cell line A549, human ovarian carcinoma cell line SKOV -3, human prostate carcinoma cell line P C-3 and human epidermoid carcinoma cell line A431.
as §11
(§14) The cytotoxicity assay was performed using 1 mg/mL stock solutions of 1 -8 , 13 , 15 and 16. Epo thilon B was tested as positive […]
(§15) IC50 in µM; - no activity
(§16) Table S3. Half inhibitory concentration (IC50 in µM) of 5 .
(§17) The extended cytotoxicity assay against further cell lines was performed using a 1 mg/mL stock solution of 5 . Epothilon B was tested as positive control.
(§18) Hei mio my cin D (5) Epo B

[6] = system: human lung carcinoma cell line A549; assay: Extended cytotoxicity assay; conditions: read-out: Half inhibitory concentration (IC50)
Method: as §8, §13, §11, §14, §15, §16, §17, §18

[7] = system: human epidermoid carcinoma cell line A431; assay: Extended cytotoxicity assay; conditions: read-out: Half inhibitory concentration (IC50)
Method: as §8, §13
(§19) Table S2. Half inhibitory concentration (IC50 i n µM ) . […]
as §16, §17, §18

[8] = system: human breast carcinoma cell line MCF-7; assay: Extended cytotoxicity assay; conditions: MCF7, read-out: Half inhibitory concentration (IC50)
Method: as §8, §13, §19, §16, §17, §18

[9] = system: human ovarian carcinoma cell line SKOV-3; assay: Extended cytotoxicity assay; conditions: SK-OV-3, read-out: Half inhibitory concentration (IC50)
Method: as §8, §13, §19, §16, §17, §18

Compound: C[C@@H]1[C@H](O)[C@@H](C)/C=C/C=C/CC/C=C/C=C/C=C/C=C/C(O[C@H]2O[C@H](C)[C@@H](O)[C@H](N)[C@@H]2O)CC2O[C@](O)(CC(O)C(O)CCC(O)CC(O)CC(O)CC(=O)O[C@H]1C)CC(O)C2C(=O)O (stereo partly drawn) [Nystatin, reference compound]
Minimum inhibitory concentration (MIC) (Mucor hiemalis DSM 2656; - = no inhibition was observed): 8.3 µg/mL (≈ 8.96 µM)
Minimum inhibitory concentration (MIC) ([1]; - = no inhibition was observed): 4.2 µg/mL (≈ 4.54 µM)

Compound: CN(C)[C@@H]1C(=O)C(C(N)=O)=C(O)[C@@]2(O)C(=O)C3=C(O)c4c(O)cccc4[C@@](C)(O)[C@H]3[C@H](O)[C@@H]12 [Oxytetracyclin, reference compound]
Minimum inhibitory concentration (MIC) (Bacillus subtilis DSM 10; - = no inhibition was observed): 8.3 µg/mL (≈ 18 µM)
Minimum inhibitory concentration (MIC) ([2]; Staphylococcus aureus DSM 346, - = no inhibition was observed): 0.83 µg/mL (≈ 1.8 µM)

Compound: CC(C)[C@H]1CC[C@H](C)c2c(O)c(O)c(C=O)c(C3=C(O)C(=O)C(c4c(C=O)c(O)c(O)c5c4[C@@H](C(C)C)CC[C@@H]5C)=C(O)C3=O)c21 [compound 1, Bis-heimiomycin A]
MIC (Bacillus subtilis DSM 10): 33.3 µg/mL (≈ 52.6 µM)
MIC [1]: 66.6 µg/mL (≈ 105 µM)

Compound: CC(C)[C@H]1CC[C@H](C)c2c(O)c(O)c3c(c21)C1=C(OC3)C(=O)C2=C(OCc3c(O)c(O)c4c(c32)[C@@H](C(C)C)CC[C@@H]4C)C1=O [compound 4, Bis-heimiomycin D]
IC50 [3]: 35 µM

Compound: O=c1cc(O)cc(/C=C/c2ccc(O)c(O)c2)o1 [compound 15, hispidin]
IC50 [4]: 85.4 µM
IC50 [3]: 93.5 µM

Compound: O=c1cc(O)cc(C2c3c(cc(/C=C/c4ccc(O)c(O)c4)oc3=O)OC2c2ccc(O)c(O)c2)o1 (stereo not drawn) [compound 16, hypholomin B]
MIC (Bacillus subtilis DSM 10): 33.3 µg/mL (≈ 67.9 µM)

Second part, led by results:

MIC (Bacillus subtilis DSM 10): 16.6 µg/mL (≈ 26.9 µM)
MIC [2]: 33.3 µg/mL (≈ 54 µM)
Compound: CC(C)[C@H]1CC[C@H](C)c2c(O)c(O)c(C=O)c(C3=C(O)C(=O)C4=C(OCc5c(O)c(O)c6c(c54)[C@@H](C(C)C)CC[C@@H]6C)C3=O)c21 [compound 2, Bis-heimiomycin B]
IC50 [3]: 30.8 µM

MIC (Bacillus subtilis DSM 10): 16.6 µg/mL (≈ 26.8 µM)
MIC [2]: 33.3 µg/mL (≈ 53.8 µM)
Compound: CC(C)[C@H]1CC[C@H](C)c2c(O)c(O)c(CO)c(C3=C(O)C(=O)C4=C(OCc5c(O)c(O)c6c(c54)[C@@H](C(C)C)CC[C@@H]6C)C3=O)c21 [compound 3, Bis-heimiomycin C]
IC50 [4]: 32.4 µM
IC50 [3]: 27.5 µM

MIC (Bacillus subtilis DSM 10): 33.3 µg/mL (≈ 83.2 µM)
MIC [2]: 33.3 µg/mL (≈ 83.2 µM)
Compound: CC1=C(O)C(=O)C(c2c(C=O)c(O)c(O)c3c2[C@@H](C(C)C)CC[C@@H]3C)=C(O)C1=O [compound 5, Heimiomycin D]
IC50 [4]: 45 µM
IC50 [3]: 6.3 µM
IC50 [5]: 30 µM
IC50 [6]: 14.3 µM
IC50 ([7]; A431): 4.3 µM
IC50 ([7]; Homo sapiens, A-431, A431): 4.25 µM
IC50 [8]: 2.5 µM
IC50 [9]: 3 µM

MIC (Bacillus subtilis DSM 10): 16.6 µg/mL (≈ 43 µM)
MIC [2]: 66.6 µg/mL (≈ 172 µM)
Compound: CC(C)[C@H]1CC[C@H](C)c2c(O)c(O)c(C=O)c(C3=C(O)C(=O)C=C(O)C3=O)c21 [compound 6, Heimiomycin E]
IC50 [4]: 57 µM

MIC (Bacillus subtilis DSM 10): 66.6 µg/mL (≈ 284 µM)
MIC [2]: 66.6 µg/mL (≈ 284 µM)
MIC (Mucor hiemalis DSM 2656; DSM2656, - = no inhibition was observed, read-out: Minimum inhibitory concentration (MIC)): 33.3 µg/mL (≈ 142 µM)
MIC [1]: 66.6 µg/mL (≈ 284 µM)
Compound: CC(C)[C@H]1CC[C@H](C)C2=C1C=C(C(=O)O)CC2 [compound 7, Heimiocalamene A]
IC50 [3]: 85.5 µM

MIC (Bacillus subtilis DSM 10): 66.6 µg/mL (≈ 254 µM)
MIC [1]: 66.6 µg/mL (≈ 254 µM)
Compound: Cc1c(O)c(O)c(C(C)C)c2c1CCC(C(=O)O)=C2 [compound 8, Heimiocalamene B]
IC50 [4]: 37.4 µM
IC50 [3]: 31.3 µM
